Data published in ChEMBL document CHEMBL4651402, “Screening of ~5500 FDA-approved drugs and clinical candidates for anti-SARS-CoV-2 activity” (2021).

System: SARS-CoV-2
Test: microbe, parasite or virus in culture
Conditions: Severe acute respiratory syndrome coronavirus 2, Vero C1008, 48 h

Structure (SMILES) | IC50 | IC50 (read-out: pIC50 (converted))
NC(=O)Cc1cccc(C(=O)c2ccccc2)c1N | > 20 µM | > 20 µM
CN[C@@H](C)[C@H](O)c1ccc(O)cc1 | > 20 µM | > 20 µM
CCOC(=O)[C@H](CCc1ccccc1)N[C@@H](C)C(=O)N1[C@H](C(=O)O)C[C@@H]2CCC[C@@H]21 | > 20 µM | > 20 µM
NCc1c[nH]c(=S)n1[C@H]1CCc2c(F)cc(F)cc2C1 | > 20 µM | > 20 µM
Cc1cc(/C=C/c2ccc3cc(N(C)C)ccc3[n+]2C)c(C)n1-c1ccccc1 | > 20 µM | > 20 µM
C[C@@H](N)C12CC3CC(CC(C3)C1)C2 | > 20 µM | > 20 µM
CC1=CC(=O)C2=C(C)CCC3C(C)C(=O)OC3C12 (stereo not given) | > 20 µM | > 20 µM
Cc1nc(O)c2cc(CN(C)c3ccc(C(=O)NC(CCC(=O)O)C(=O)O)s3)ccc2n1 (stereo not given) | > 20 µM | > 20 µM
COc1cc(=O)n(C)c2c(OCC(O)C(C)(C)O)cccc12 (stereo not given) | > 20 µM | > 20 µM
C[N+]1(C)CCC[C@H]1C(=O)[O-] | > 20 µM | > 20 µM
C=CC1CN2CCC1CC2C(O)c1ccnc2ccccc12 (stereo not given) | > 20 µM | > 20 µM
CCCN(CCC)CCc1ccc(O)c(O)c1 | > 20 µM | > 20 µM
CN1C[C@H]2C[C@@H]1CN2c1cc2c(cc1F)c(=O)c(C(=O)O)cn2C1CC1 | > 20 µM | > 20 µM
CC(C)N(CCNC(=O)CN1CCCC1=O)C(C)C | > 20 µM | > 20 µM
OCc1cc2c(cn1)[nH]c1ccccc12 | > 20 µM | > 20 µM
CS(=N)(=O)CCC(N)C(=O)O (stereo not given) | > 20 µM | > 20 µM
C[N+]1(C)C2CCC1CC(OC(=O)C(O)c1ccccc1)C2 (stereo not given) | > 20 µM | > 20 µM
NC(Cc1c[nH]c2ccc(O)cc12)C(=O)O (stereo not given) | > 20 µM | > 20 µM
COC(=O)[C@H](Cc1ccccc1)NC(=O)[C@@H](N)CC(=O)O | > 20 µM | > 20 µM
C[C@H](N[C@@H](CCc1ccccc1)C(=O)O)C(=O)N1Cc2ccccc2C[C@H]1C(=O)O | > 20 µM | > 20 µM
CC[C@@]1(c2ccccc2)NC(=O)N(C)C1=O | > 20 µM | > 20 µM
Nc1nccc2c1ncn2C1OC(CO)C(O)C1O (stereo not given) | > 20 µM | > 20 µM
CCOC(=O)Cc1ccc(-c2ccccc2)cc1 | > 20 µM | > 20 µM
CCOC(=O)Nc1ccc(SC[C@H]2CO[C@](Cn3ccnc3)(c3ccc(OC)cc3)O2)cc1 | > 20 µM | > 20 µM
O=C1CCC(c2ccccc2)(C2CCN(C/C=C/c3ccccc3)CC2)C(=O)N1 (stereo not given) | > 20 µM | > 20 µM
Cc1cc(OCCCS(C)(=O)=O)cc(C)c1-c1cccc(COc2ccc3c(c2)OC[C@@H]3CC(=O)O)c1 | > 20 µM | > 20 µM
C[C@H](CCC(=O)O)[C@H]1CC[C@H]2[C@@H]3[C@H](O)CC4C[C@H](O)CC[C@]4(C)[C@H]3CC[C@]12C (stereo not given in full) | > 20 µM | > 20 µM

Structure (SMILES) | IC50 | IC50 (read-out: pIC50 (converted))
COc1ccc(CCN)cc1OC | > 20 µM | > 20 µM
CNCCc1cnc[nH]1 | > 20 µM | > 20 µM
CC(=O)O[C@]1(C(C)=O)CCC2C3C[C@H](C)C4=CC(=O)CCC4(C)C3CCC21C (stereo not given in full) | > 20 µM | > 20 µM
O=C(O)C1CCCN(CCC=C2c3ccccc3CCc3ccccc32)C1 (stereo not given) | > 20 µM | > 20 µM
CC(=O)OCC1OC(n2ccc(=O)[nH]c2=O)C(OC(C)=O)C1OC(C)=O (stereo not given) | > 20 µM | > 20 µM
O=C(O)c1ccc2[nH]nnc2c1 | > 20 µM | > 20 µM
OCC(O)COc1ccc(Cl)cc1 (stereo not given) | > 20 µM | > 20 µM
OCC1CCC(n2cnc3c(O)ncnc32)O1 (stereo not given) | > 20 µM | > 20 µM
CCCC[C@@]1(CC)CS(=O)(=O)c2cc(CNC(CC(=O)O)CC(=O)O)c(OC)cc2[C@H](c2ccccc2)N1 | > 20 µM | > 20 µM
COC(=O)Nc1c(N)nc(-c2nn(Cc3ccccc3F)c3ncccc23)nc1N | > 20 µM | > 20 µM
Nc1ncc([N+](=O)[O-])s1 | > 20 µM | > 20 µM
CC(=O)OCC(=O)C1(O)C(C)CC2C3CC(F)C4=CC(=O)C=CC4(C)C3C(O)CC21C (stereo not given) | > 20 µM | > 20 µM
CSC[C@H](NC(=O)COc1cccc2cnccc12)C(=O)N[C@@H](Cc1ccccc1)[C@H](O)C(=O)N1CSC[C@H]1C(=O)NC(C)(C)C | > 20 µM | > 20 µM
C=C(C)C1Cc2c(ccc3c2OC2COc4cc(OC)c(OC)cc4C2C3=O)O1 (stereo not given) | > 20 µM | > 20 µM
CC(=O)O[C@H]1CC[C@@]2(C)C(=CC(=O)[C@@H]3[C@@H]2CC[C@]2(C)C(=O)CC[C@@H]32)C1 | > 20 µM | > 20 µM
NC(=O)c1[nH]cnc1O | > 20 µM | > 20 µM
CC(C)c1ccc(C(=O)NCCOc2ccc(C(=O)O)cc2)cc1 | > 20 µM | > 20 µM
CC(C=NNC(=N)N)=NNC(=N)N | > 20 µM | > 20 µM
CC(C)CCCC(C)C1CCC2C3CC(O)[C@@]4(O)CC(O)CCC4(C)C3CCC12C (stereo not given in full) | > 20 µM | > 20 µM
CC(C)OC(=O)[C@H](C)N[P@@](=S)(OC[C@H]1O[C@@H](n2ccc(=O)[nH]c2=O)[C@](C)(O)[C@@H]1O)Oc1ccccc1 | > 20 µM | > 20 µM
CC(=O)OC1CCC2(C)C(=CCC3C2CCC2(C)C(C(C)CCCC(C)C)CCC32)C1 (stereo not given) | > 20 µM | > 20 µM
CC1(C)SC2C(NC(=O)C(NC(=O)N3CCNC3=O)c3ccccc3)C(=O)N2C1C(=O)O (stereo not given) | > 20 µM | > 20 µM
CC[C@H]1/C=C\C=C/C[C@@H](C)[C@H](O)[C@@](C)(O)C(=O)[C@@H](C)[C@H](O)[C@@H](C)C(=O)[C@@H](C)[C@H](O)[C@@H](C)/C=C\C(=O)O[C@@H]2[C@@H](C)[C@H](CC1)O[C@]1(CC[C@H](C)[C@H](C[C@@H](C)O)O1)[C@H]2C | > 20 µM | > 20 µM
CC12C=CC(=O)C=C1C(F)CC1C2C(O)CC2(C)C1CCC2(O)C(=O)CO (stereo not given) | > 20 µM | > 20 µM
CC(C)N(CCC(C(N)=O)(c1ccccc1)c1ccccc1)C(C)C | > 20 µM | > 20 µM
C[C@@H]1CCC[C@@H](C)N1CCCC(O)(c1ccccc1)c1ccccn1 (stereo not given in full) | > 20 µM | > 20 µM
C[C@H](Cc1ccccc1)N(C)Cc1ccco1 | > 20 µM | > 20 µM

Structure (SMILES) | IC50 | IC50 (read-out: pIC50 (converted))
[2H]C([2H])(OC(=O)C(C)C)[C@@]1(CCl)O[C@@H](n2ccc(N)nc2=O)[C@H](F)[C@@H]1OC(=O)C(C)C | > 20 µM | > 20 µM
CC=C(C)C(=O)O[C@@H]1c2c(ccc3ccc(=O)oc23)OC(C)(C)[C@@H]1OC(C)=O | > 20 µM | > 20 µM
CC(=O)C1CCC2C3CCC4CC(O)CCC4(C)C3CC(O)C12C (stereo not given) | > 20 µM | > 20 µM
O=c1cc2c(nn1-c1ccc(Cl)cc1)-c1ccccc1[S+]([O-])CC2 (stereo not given) | > 20 µM | > 20 µM
CC1O[C@@H](OC2CC[C@@]3(C)C(CCC4C3CC(O)[C@]3(C)[C@@H](C5=CC(=O)OC5)CCC43O)C2)CC(O)[C@@H]1O[C@H]1CC(O)[C@H](O[C@H]2CC(O)[C@H](O[C@@H]3OC(CO)[C@@H](O)C(O)C3O)C(C)O2)C(C)O1 (stereo not given in full) | > 20 µM | > 20 µM
CC12CCC3C(CC[C@H]4CC(=O)CCC34C)C1CCC2C(=O)CO (stereo not given in full) | > 20 µM | > 20 µM
Cc1cc(CC(=O)O)n(C)c1[14C](=O)c1ccc(Cl)cc1 | > 20 µM | > 20 µM
CC(=O)OC1CCC2(C)C3CC(=O)C4(C)C(CC5O[C@]6(CCC(C)CO6)C(C)C54)C3CC[C@H]2C1 (stereo not given in full) | > 20 µM | > 20 µM
CC(=O)OC1CCC2(C)C3CCC4(C)C(CC5OC6(CCC(C)CO6)C(C)C54)C3CC[C@H]2C1 (stereo not given in full) | > 20 µM | > 20 µM
C=C1CC23CCC4C(C)(C(=O)O)CCCC4(C)C2CCC1(OC1OC(CO)C(O)C(O)C1OC1OC(CO)C(O)C(O)C1O)C3 (stereo not given) | > 20 µM | > 20 µM
O=C(O)CC/C=C/CCC1C(OCc2ccc(-c3ccccc3)cc2)CC(O)C1N1CCCCC1 (stereo not given) | > 20 µM | > 20 µM
C[C@@]12CCC3[C@@](CC[C@@H]4[C@](C)(C(=O)O)CCC[C@@]34C)(CC1=O)C2 (stereo not given in full) | > 20 µM | > 20 µM
CCN(C/C=C\c1ccc(C2CCCCC2)c(Cl)c1)C1CCCCC1 | > 20 µM | > 20 µM
CC(=O)OC1CCC2(C)C(=CCC3C2CCC2(C)C(OC(=O)c4ccccc4)CCC32)C1 (stereo not given) | > 20 µM | > 20 µM
COc1ccccc1OC(=O)C(C)c1ccc(CC(C)C)cc1 (stereo not given) | > 20 µM | > 20 µM
NC(=O)CCC/N=C(/c1ccc(Cl)cc1)c1cc(F)ccc1O | > 20 µM | > 20 µM
O=C(O)[C@H]1C[C@H]([C@H]2CCCCN2)CN2CCCC[C@H]12 | > 20 µM | > 20 µM
CCC(C)C(NC(=O)C(CCC(N)=O)NC(=O)C1CCCN1C(=O)C(CCCNC(=N)N)NC(=O)C1CCCN1C(=O)C(Cc1c[nH]c2ccccc12)NC(=O)C1CCC(=O)N1)C(=O)N1CCCC1C(=O)N1CCCC1C(=O)O (stereo not given) | > 20 µM | > 20 µM
O=C1O[C@@H]([C@@H](O)CO)C(O)=C1O | > 20 µM | > 20 µM
COc1ccc(C2CNC(=O)NC2)cc1O[C@@H]1C[C@H]2CC[C@@H]1C2 | > 20 µM | > 20 µM
C=C1CC[C@H](O)C/C1=C/C=C1\CCCC2(C)C1CCC2C(C)/C=C/C(C)C(C)C (stereo not given in full) | > 20 µM | > 20 µM
Nc1nc(OC(c2ccc(-c3cccc(F)c3)cc2)C(F)(F)F)cc(-c2ccc(C[C@H](N)C(=O)O)cc2)n1 (stereo not given in full) | > 20 µM | > 20 µM
C#C[C@]1(CO)O[C@@H](n2cnc3c(N)nc(F)nc32)C[C@@H]1O | > 20 µM | > 20 µM
Nc1ccccc1S(N)(=O)=O | > 20 µM | > 20 µM
COc1ccc(CCN(C)CCCC(C#N)(c2ccc(OC)c(OC)c2)C(C)C)cc1OC (stereo not given) | > 20 µM | > 20 µM
O=C[C@@H]1CCCN1C(=O)CCC(=O)NCc1ccc(Cl)cc1 | > 20 µM | > 20 µM
